In patent US20250296959A1, “B7-H3 TARGETING PEPTIDES AND CONSTRUCTS THEREOF” (Mariana Oncology Inc., priority 2024, published 2025):
Where two headings read alike, the source gives them in different places. Starred links: 1 amine or outer side, 2 acyl side, 3 side chain; linkers in the order of their positions; H or OH if unused. Positions of bridges follow the written chain, without caps; N, C: chain ends. Non-standard residues stand in square brackets, D forms with d. Residues, ends and D or L forms follow the SMILES beside them. Groups on a side chain read outwards from the residue. *: point of attachment. Ala(piperidin-4-yl) = O=C([C@H](CC1CCN([*:3])CC1)N[*:1])[*:2]; DOTA = O=C(O)CN1CCN(CC(=O)O)CCN(CC(=O)*)CCN(CC(=O)O)CC1; Trp(5-F) = N[C@@H](Cc1c[nH]c2ccc(F)cc12)C(=O)O; Ala(4-THP) = N[C@@H](CC1CCOCC1)C(=O)O; X3 = O=C([C@H](CCC1CCC1)N[*:1])[*:2]; Val(3-OH) = CC(C)(O)[C@H](N)C(=O)O; hCha = N[C@@H](CCC1CCCCC1)C(=O)O; PEG4 = NCCOCCOCCOCCOCCC(=O)O; Tle = CC(C)(C)[C@H](N)C(=O)O; hLeu = CC(C)CC[C@H](N)C(=O)O; Dab = NCC[C@H](N)C(=O)O; Sar = CNCC(=O)O

Tests used:
human 4lg B7-H3 = target: T1, human 4lg B7-H3 (Homo sapiens, UniProt Q5ZPR3); assay: Affinity determination by surface plasmon resonance (SPR) to 4Ig B7-H3; conditions: 4Ig B7-H3, 37° C. flow cell temperature
T1 sequence (Q5ZPR3 29-534): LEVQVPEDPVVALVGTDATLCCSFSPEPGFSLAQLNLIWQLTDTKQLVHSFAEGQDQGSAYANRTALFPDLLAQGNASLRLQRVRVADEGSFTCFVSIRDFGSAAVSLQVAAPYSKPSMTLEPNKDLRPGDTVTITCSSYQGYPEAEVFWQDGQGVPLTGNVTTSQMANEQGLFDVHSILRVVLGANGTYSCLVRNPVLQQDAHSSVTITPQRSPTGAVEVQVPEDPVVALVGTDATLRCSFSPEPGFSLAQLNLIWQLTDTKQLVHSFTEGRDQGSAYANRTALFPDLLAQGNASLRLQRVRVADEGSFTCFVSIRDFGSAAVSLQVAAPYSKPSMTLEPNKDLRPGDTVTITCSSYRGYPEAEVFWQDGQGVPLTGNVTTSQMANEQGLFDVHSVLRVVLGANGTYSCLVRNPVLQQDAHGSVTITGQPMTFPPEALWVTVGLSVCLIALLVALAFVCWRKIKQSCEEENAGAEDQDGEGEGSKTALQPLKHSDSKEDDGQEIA

Calu-6 cell line [1] = assay: Net internalization of [177Lu]Lu-labeled peptide in Calu-6 cells; format: cell-based, Human; conditions: 1 hour, 37° C., glycine pH 2.5 acid wash
How it was run: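 Calu-6 cells, human non-engineered lung cancer expressing B7-H3, resuspended in 1% PBSA at 5 million cells/mL and incubated with the 177Lu-labeled conjugate (labeled at 80 °C, pH ~5, RP-HPLC checked). Gamma counting of the bound fraction, then of the pellet after two glycine pH 2.5 acid strips and NaOH lysis, gives internalized activity.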

Calu-6 cell line [2] = assay: Cell associated (bound) fraction of [177Lu]Lu-labeled peptide in Calu-6 cells; format: cell-based, Human; conditions: 1 hour, 37° C.
How it was run: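 Detached B7-H3-expressing human lung cancer cells at 5 million/mL were exposed for 1 hour at 37 °C to 0.8 μCi of the 177Lu-labelled peptide, which was formulated in 1% PBSA after labelling at 80 °C, pH ~5. Supernatant and two cold washes counted as unbound, and resuspended cells gamma-counted as the cell-associated fraction.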

SMILES	Kd (human 4lg B7-H3; read-out: SPR KD—37° C.) [nM]	% net internalization (Calu-6 cell line [1])	% cell associated fraction (Calu-6 cell line [2])	Kd (human 4lg B7-H3; SPR KD—37° C.) [nM]
CC(=O)N[C@@H](CCC(C)C)C(=O)N[C@@H](Cc1ccc(O)cc1)C(=O)N[C@H]1CSSC[C@@H](C(=O)N[C@@H](Cc2c[nH]c3ccc(F)cc23)C(=O)N[C@@H](Cc2ccccc2)C(=O)N[C@H](C(=O)N[C@H](CCCCNC(=O)CN2CCN(CC(=O)O)CCN(CC(=O)O)CCN(CC(=O)O)CC2)C(=O)O)C(C)(C)O)NC(=O)[C@H](Cc2ccc(O)cc2)NC(=O)[C@H](C(C)C)NC(=O)[C@H](CC(=O)O)NC(=O)[C@H](CC2CCOCC2)NC(=O)[C@H](CCCCN)NC(=O)CN(C)C(=O)[C@H](C(C)(C)C)NC1=O [compound 348, Ac-hLeu-Y-C-Tbg-Sar-K-ThpA-D-V-Y-C-5FW-F-hydroxyVal-dLys(DOTA)-COOH] (Ac-[hLeu]YC[Tle][Sar]K[Ala(4-THP)]DVYC[Trp(5-F)]F[Val(3-OH)][dK](DOTA)-OH; disulfide 3-11)	< 1	A (%≤25)	B (25<%≤50)	–
CC(=O)N[C@@H](CCC(C)C)C(=O)N[C@@H](Cc1ccc(O)cc1)C(=O)N[C@H]1CSSC[C@@H](C(=O)N[C@@H](Cc2c[nH]c3ccc(F)cc23)C(=O)N[C@@H](Cc2ccccc2)C(=O)N[C@H](C(=O)N[C@H](CCCCNC(=O)CN2CCN(CC(=O)O)CCN(CC(=O)O)CCN(CC(=O)O)CC2)C(N)=O)C(C)(C)O)NC(=O)[C@H](Cc2ccc(O)cc2)NC(=O)[C@H](C(C)C)NC(=O)[C@H](CC(=O)O)NC(=O)[C@H](CC2CCOCC2)NC(=O)[C@H](CCCCN)NC(=O)CNC(=O)[C@H](C(C)(C)C)NC1=O [compound 366, Ac-hLeu-Y-C-Tbg-G-K-ThpA-D-V-Y-C-5FW-F-hydroxyVal-dLys(DOTA)-CONH2] (Ac-[hLeu]YC[Tle]GK[Ala(4-THP)]DVYC[Trp(5-F)]F[Val(3-OH)][dK](DOTA)-NH2; disulfide 3-11)	–	A (%≤25)	B (25<%≤50)	< 1
CC(=O)N[C@@H](CCC1CCCCC1)C(=O)N[C@@H](Cc1ccc(O)cc1)C(=O)N[C@H]1CSSC[C@@H](C(=O)N[C@@H](Cc2c[nH]c3ccc(F)cc23)C(=O)N[C@@H](Cc2ccccc2)C(=O)N[C@H](C(=O)N[C@H](CCCCNC(=O)CN2CCN(CC(=O)O)CCN(CC(=O)O)CCN(CC(=O)O)CC2)C(=O)O)C(C)(C)O)NC(=O)[C@H](Cc2ccc(O)cc2)NC(=O)[C@H](C(C)C)NC(=O)[C@H](CC(=O)O)NC(=O)[C@H](CC2CCOCC2)NC(=O)[C@H](CCCCN)NC(=O)CNC(=O)[C@H](C(C)(C)C)NC1=O [compound 368, Ac-hCha-Y-C-Tbg-G-K-ThpA-D-V-Y-C-5FW-F-hydroxyVal-dLys(DOTA)-COOH] (Ac-[hCha]YC[Tle]GK[Ala(4-THP)]DVYC[Trp(5-F)]F[Val(3-OH)][dK](DOTA)-OH; disulfide 3-11)	–	A (%≤25)	B (25<%≤50)	< 1
CC(=O)N[C@@H](CCC(C)C)C(=O)N[C@@H](Cc1ccc(O)cc1)C(=O)N[C@H]1CSSC[C@@H](C(=O)N[C@@H](Cc2c[nH]c3ccc(F)cc23)C(=O)N[C@@H](Cc2ccccc2)C(=O)N[C@H](C(=O)N[C@H](CCCCNC(=O)CN2CCN(CC(=O)O)CCN(CC(=O)O)CCN(CC(=O)O)CC2)C(=O)O)C(C)(C)O)NC(=O)[C@H](Cc2ccc(O)cc2)NC(=O)[C@H](C(C)C)NC(=O)[C@H](CC(=O)O)NC(=O)[C@H](CC2CCOCC2)NC(=O)[C@H](CCN)NC(=O)CNC(=O)[C@H](C(C)(C)C)NC1=O [compound 371, Ac-hLeu-Y-C-Tbg-G-Dab-ThpA-D-V-Y-C-5FW-F-hydroxyVal-dLys(DOTA)-COOH] (Ac-[hLeu]YC[Tle]G[Dab][Ala(4-THP)]DVYC[Trp(5-F)]F[Val(3-OH)][dK](DOTA)-OH; disulfide 3-11)	–	A (%≤25)	B (25<%≤50)	< 1
CC(=O)N[C@@H](CCC(C)C)C(=O)N[C@@H](Cc1ccc(O)cc1)C(=O)N[C@H]1CSSC[C@@H](C(=O)N[C@@H](Cc2c[nH]c3ccc(F)cc23)C(=O)N[C@@H](Cc2ccccc2)C(=O)N[C@H](C(N)=O)C(C)(C)O)NC(=O)[C@H](Cc2ccc(O)cc2)NC(=O)[C@H](C(C)C)NC(=O)[C@H](CC(=O)O)NC(=O)[C@H](CC2CCN(C(=O)CCOCCOCCOCCOCCNC(=O)CN3CCN(CC(=O)O)CCN(CC(=O)O)CCN(CC(=O)O)CC3)CC2)NC(=O)[C@H](CCCCN)NC(=O)CNC(=O)[C@H](C(C)(C)C)NC1=O [compound 383, Ac-hLeu-Y-C-Tbg-G-K-Pip(PEG4-DOTA)Ala-D-V-Y-C-5FW-F-hydroxyVal-CONH2] (Ac-[hLeu]YC[Tle]GK[Ala(piperidin-4-yl)]([PEG4-DOTA])DVYC[Trp(5-F)]F[Val(3-OH)]-NH2; disulfide 3-11)	< 1	B (25<%≤50)	B (25<%≤50)	–
CC(=O)N[C@@H](CCC(C)C)C(=O)N[C@@H](Cc1ccc(O)cc1)C(=O)N[C@H]1CSSC[C@@H](C(=O)N[C@@H](Cc2c[nH]c3ccc(F)cc23)C(=O)N[C@@H](Cc2ccccc2)C(=O)N[C@H](C(=O)N[C@H](C)C(N)=O)C(C)(C)O)NC(=O)[C@H](Cc2ccc(O)cc2)NC(=O)[C@H](C(C)C)NC(=O)[C@H](CC(=O)O)NC(=O)[C@H](CC2CCOCC2)NC(=O)[C@H](CC2CCN(C(=O)CCOCCOCCOCCOCCNC(=O)CN3CCN(CC(=O)O)CCN(CC(=O)O)CCN(CC(=O)O)CC3)CC2)NC(=O)CNC(=O)[C@H](C(C)(C)C)NC1=O [compound 384, Ac-hLeu-Y-C-Tbg-G-Pip(PEG4-DOTA)Ala-ThpA-D-V-Y-C-5FW-F-hydroxyVal-dAla-CONH2] (Ac-[hLeu]YC[Tle]G[Ala(piperidin-4-yl)]([PEG4-DOTA])[Ala(4-THP)]DVYC[Trp(5-F)]F[Val(3-OH)][dA]-NH2; disulfide 3-11)	< 1	A (%≤25)	B (25<%≤50)	–
CC(=O)N[C@@H](CCC(C)C)C(=O)N[C@@H](Cc1ccc(O)cc1)C(=O)N[C@H]1CSSC[C@@H](C(=O)N[C@@H](Cc2c[nH]c3ccc(F)cc23)C(=O)N[C@@H](Cc2ccccc2)C(=O)N[C@H](C(=O)N[C@H](C)C(N)=O)C(C)(C)O)NC(=O)[C@H](Cc2ccc(O)cc2)NC(=O)[C@H](C(C)C)NC(=O)[C@H](CC(=O)O)NC(=O)[C@H](CC2CCN(C(=O)CCOCCOCCOCCOCCNC(=O)CN3CCN(CC(=O)O)CCN(CC(=O)O)CCN(CC(=O)O)CC3)CC2)NC(=O)[C@H](CCCCN)NC(=O)CNC(=O)[C@H](C(C)(C)C)NC1=O [compound 385, Ac-hLeu-Y-C-Tbg-G-K-Pip(PEG4-DOTA)Ala-D-V-Y-C-5FW-F-hydroxyVal-dAla-CONH2] (Ac-[hLeu]YC[Tle]GK[Ala(piperidin-4-yl)]([PEG4-DOTA])DVYC[Trp(5-F)]F[Val(3-OH)][dA]-NH2; disulfide 3-11)	< 1	B (25<%≤50)	C (%>50)	–
CC(=O)N[C@@H](CCC1CCC1)C(=O)N[C@@H](Cc1ccc(O)cc1)C(=O)N[C@H]1CSSC[C@@H](C(=O)N[C@@H](Cc2c[nH]c3ccc(F)cc23)C(=O)N[C@@H](Cc2ccccc2)C(=O)N[C@H](C(=O)N[C@H](CCCCNC(=O)CN2CCN(CC(=O)O)CCN(CC(=O)O)CCN(CC(=O)O)CC2)C(=O)O)C(C)(C)O)NC(=O)[C@H](Cc2ccc(O)cc2)NC(=O)[C@H](C(C)C)NC(=O)[C@H](CC(=O)O)NC(=O)[C@H](CC2CCOCC2)NC(=O)[C@H](CCCCN)NC(=O)CNC(=O)[C@H](C(C)(C)C)NC1=O [compound 398, Ac-hCba-Y-C-Tbg-G-K-ThpA-D-V-Y-C-5FW-F-hydroxyVal-dLys(DOTA)-COOH] (Ac-[X3]YC[Tle]GK[Ala(4-THP)]DVYC[Trp(5-F)]F[Val(3-OH)][dK](DOTA)-OH; disulfide 3-11)	< 1	A (%≤25)	B (25<%≤50)	–
CC(=O)N[C@@H](CCC(C)C)C(=O)N[C@@H](Cc1ccc(O)cc1)C(=O)N[C@H]1CSSC[C@@H](C(=O)N[C@@H](Cc2c[nH]c3ccc(F)cc23)C(=O)N[C@@H](Cc2ccccc2)C(=O)N[C@H](C(=O)N[C@H](CO)C(N)=O)C(C)(C)O)NC(=O)[C@H](Cc2ccc(O)cc2)NC(=O)[C@H](C(C)C)NC(=O)[C@H](CC(=O)O)NC(=O)[C@H](CC2CCOCC2)NC(=O)[C@H](CC2CCN(C(=O)CCOCCOCCOCCOCCNC(=O)CN3CCN(CC(=O)O)CCN(CC(=O)O)CCN(CC(=O)O)CC3)CC2)NC(=O)CNC(=O)[C@H](C(C)(C)C)NC1=O [compound 407, Ac-hLeu-Y-C-Tbg-G-Pip(PEG4-DOTA)Ala-ThpA-D-V-Y-C-5FW-F-hydroxyVal-dSer-CONH2] (Ac-[hLeu]YC[Tle]G[Ala(piperidin-4-yl)]([PEG4-DOTA])[Ala(4-THP)]DVYC[Trp(5-F)]F[Val(3-OH)][dS]-NH2; disulfide 3-11)	< 1	A (%≤25)	C (%>50)	–
